Measurements: PubChem BioAssay AID330 (DTP/NCI, 2004)
“And” between values parts separate entries of the source, which are not always exact repeats. Identical values can stand only once. Toxic doses and inconclusive results are not listed. Rule for the calls: active = survival T/C of 150% or more; inactive = T/C below 125% in these data. Square brackets hold non-standard residues; d marks the D form. Peptide text beside a SMILES is read from it. * marks the point of attachment. ξ: configuration not given here. ξLac(3-iPr) = CC(C)CC(O)C(=O)O; NMeV = CN[CH](C(=O)O)C(C)C; Cbz = O=C(OCc1ccccc1)*; NMeA = CN[CH](C)C(=O)O; ξNva = CCCC(N)C(=O)O; ξT = CC(O)C(N)C(=O)O; βAla = NCCC(=O)O

Test system: P388 leukemia ip, CD2F1 mice, survival T/C
Assay: NCI In Vivo Anticancer Drug Screen. Data for tumor model P388 Leukemia (intraperitoneal) in CD2F1 (CDF1) mice
Conditions: endpoint: median survival time, higher = longer survival
How it was run: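 Mice carrying the transplanted tumor received test compound or vehicle. Survival was recorded in each group, and the value is the treated-group measurement divided by that of the vehicle-treated control group.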

[1] = dose: 50.0 mg/kg/injection, schedule: Q01DX005 (ip), vehicle: Klucel (hydroxypropylcellulose) (HPC)
[2] = dose: 100.0 mg/kg/injection, schedule: Q01DX005 (ip), vehicle: Klucel (hydroxypropylcellulose) (HPC)
[3] = dose: 200.0 mg/kg/injection, schedule: Q01DX005 (ip), vehicle: Klucel (hydroxypropylcellulose) (HPC)
[4] = dose: 50.0 mg/kg/injection, schedule: Q01DX009 (ip), vehicle: saline with Tween-80
[5] = dose: 100.0 mg/kg/injection, schedule: Q01DX009 (ip), vehicle: saline with Tween-80
[6] = dose: 60.0 mg/kg/injection, schedule: Q01DX005 (ip), vehicle: saline with Tween-80
[7] = dose: 120.0 mg/kg/injection, schedule: Q01DX005 (ip), vehicle: saline with Tween-80
[8] = dose: 240.0 mg/kg/injection, schedule: Q01DX005 (ip), vehicle: saline with Tween-80
[9] = dose: 200.0 mg/kg/injection, schedule: Q01DX009 (ip), vehicle: saline with Tween-80
[10] = dose: 50.0 mg/kg/injection, schedule: Q01DX005 (ip), vehicle: saline
[11] = dose: 100.0 mg/kg/injection, schedule: Q01DX005 (ip), vehicle: saline
[12] = dose: 200.0 mg/kg/injection, schedule: Q01DX005 (ip), vehicle: saline

Measured: T/C

CCCC(NC(=O)OCc1ccccc1)C(=O)NCC(=O)O (stereo unspecified) (Cbz-[ξNva]-Gly-OH)
inactive: [1] 107 % of control | [2] 93 % of control | [3] 91 % of control

CCS/C(C#N)=C/c1ccccc1Cl
inactive: [4] 103 % of control | [5] 112 % of control

CCC(C)C1NC(=O)C2CCCN2C(=O)C(CC(C)C)OC(=O)CCNC(=O)C(C)N(C)C(=O)C(C(C)C)N(C)C1=O (stereo unspecified) (cyclo([ξLac(3-iPr)]PI[NMeV][NMeA][βAla]); configuration not given here)
inactive: dose: 0.63 mg/kg/injection, schedule: Q01DX009 (ip), vehicle: saline 115 % of control | dose: 1.25 mg/kg/injection, schedule: Q01DX009 (ip), vehicle: saline 113 % of control | dose: 2.5 mg/kg/injection, schedule: Q01DX009 (ip), vehicle: saline 117 % of control | dose: 5.0 mg/kg/injection, schedule: Q01DX005 (ip), vehicle: saline with Tween-80 123 % of control | dose: 5.0 mg/kg/injection, schedule: Q01DX009 (ip), vehicle: saline 120 % of control | dose: 10.0 mg/kg/injection, schedule: Q01DX005 (ip), vehicle: saline with Tween-80 119 % of control

O=C(CNO)OCc1ccccc1
inactive: dose: 25.0 mg/kg/injection, schedule: Q01DX009 (ip), vehicle: other 97 % of control | dose: 50.0 mg/kg/injection, schedule: Q01DX009 (ip), vehicle: other 106 % of control | dose: 100.0 mg/kg/injection, schedule: Q01DX009 (ip), vehicle: other 104 % of control | dose: 200.0 mg/kg/injection, schedule: Q01DX009 (ip), vehicle: other 100 % of control | dose: 400.0 mg/kg/injection, schedule: Q01DX009 (ip), vehicle: other 106 % of control

COc1ccc(CSC(=S)Nc2ccc(F)c(F)c2)cc1
inactive: dose: 50.0 mg/kg/injection, schedule: Q01DX009 (ip), vehicle: suspension in saline 108 % of control | dose: 100.0 mg/kg/injection, schedule: Q01DX009 (ip), vehicle: suspension in saline 106 % of control | dose: 200.0 mg/kg/injection, schedule: Q01DX009 (ip), vehicle: suspension in saline 99 % of control

O=C1Nc2ccccc2C12OCCS2 (stereo unspecified)
inactive: [6] 91 % of control | [7] 98 % of control | [8] 92 % of control

COC1(OC)C2(Cl)C(Cl)=C(Cl)C1(Cl)C1CCCCC12 (stereo unspecified)
inactive: [6] 101 % of control | [7] 102 % of control | [8] 104 % of control

CC(O)C(NC(=O)CNC(=O)CNC(=O)OCc1ccccc1)C(=O)O (stereo not drawn) (Cbz-Gly-Gly-[ξT]-OH)
inactive: [1] 96 % of control | [2] 98 % of control | [3] 95 % of control

C=C/C=C/NC(=O)OCc1ccccc1
inactive: [4] 100 % of control | [5] 105 % of control | [9] 102 % of control

Cc1ccc(SCc2cn(C3OC(CO)C(O)C3O)c(=O)[nH]c2=O)cc1 (stereo unspecified)
inactive: dose: 60.0 mg/kg/injection, schedule: Q01DX005 (ip), vehicle: Klucel (hydroxypropylcellulose) (HPC) 95 % of control and 102 % of control | dose: 120.0 mg/kg/injection, schedule: Q01DX005 (ip), vehicle: Klucel (hydroxypropylcellulose) (HPC) 95 % of control and 101 % of control | dose: 240.0 mg/kg/injection, schedule: Q01DX005 (ip), vehicle: Klucel (hydroxypropylcellulose) (HPC) 92 % of control and 95 % of control

COc1ccc(CCNC(=O)Cc2ccc(Cl)cc2)cc1OC
inactive: [6] 99 % of control | [7] 97 % of control | [8] 92 % of control

CCCCOn1nnc2ccccc21
inactive: dose: 12.5 mg/kg/injection, schedule: Q01DX009 (ip), vehicle: saline with Tween-80 94 % of control | dose: 25.0 mg/kg/injection, schedule: Q01DX009 (ip), vehicle: saline with Tween-80 103 % of control | [4] 100 % of control and 97 % of control | [5] 101 % of control | [9] 113 % of control

O=[N+]([O-])c1ccc(NC(c2ccccc2)S(=O)(=O)O)cc1 (stereo unspecified)
inactive: dose: 50.0 mg/kg/injection, schedule: Q01DX009 (ip), vehicle: saline 119 % of control | dose: 100.0 mg/kg/injection, schedule: Q01DX009 (ip), vehicle: saline 109 % of control | dose: 200.0 mg/kg/injection, schedule: Q01DX009 (ip), vehicle: saline 123 % of control

CN(C)C1C(=O)C(C(=O)NCNCCC(=O)O)=C(O)C2(O)C(=O)C3=C(O)c4c(O)cccc4C(C)(O)C3CC12 (stereo unspecified)
inactive: [10] 101 % of control | [11] 94 % of control | [12] 101 % of control

CCCNCC(=O)Nc1ccccc1NC(=O)CNCCC
inactive: [10] 100 % of control | [11] 102 % of control | [12] 100 % of control
